Test results as given in PubChem BioAssay AID256 (DTP/NCI, 2004).
Several values for one entry are separate records, joined by “and”; a condition that tells them apart may be missing. Equal entries are not always repeated. Toxic doses and inconclusive results are not listed. Rule for the calls: active = survival T/C of 150% or more; inactive = T/C below 125% in these data.

Tested on: CD2F1 mice, L1210 leukemia ip, survival T/C
Experiment: NCI In Vivo Anticancer Drug Screen. Data for tumor model L1210 Leukemia (intraperitoneal) in CD2F1 (CDF1) mice
Details: higher = longer survival
Outline: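 Transplantable tumor in mice; compound-treated vs vehicle-treated groups. Read-out = treated/control ratio of the measured endpoint.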

[1] = endpoint: mean survival time, dose: 100.0 mg/kg/injection, schedule: Q01DX009 (ip), vehicle: saline with Tween-80
[2] = endpoint: mean survival time, dose: 200.0 mg/kg/injection, schedule: Q01DX009 (ip), vehicle: saline with Tween-80
[3] = endpoint: mean survival time, dose: 400.0 mg/kg/injection, schedule: Q01DX009 (ip), vehicle: saline with Tween-80
[4] = endpoint: mean survival time, dose: 50.0 mg/kg/injection, schedule: Q01DX001 (ip), vehicle: saline
[5] = endpoint: mean survival time, dose: 100.0 mg/kg/injection, schedule: Q01DX001 (ip), vehicle: saline
[6] = endpoint: mean survival time, dose: 100.0 mg/kg/injection, schedule: Q04DX002 (ip), vehicle: saline with Tween-80
[7] = endpoint: mean survival time, dose: 50.0 mg/kg/injection, schedule: Q01DX009 (ip), vehicle: saline with Tween-80
[8] = endpoint: mean survival time, dose: 100.0 mg/kg/injection, schedule: Q04DX003 (ip), vehicle: saline
[9] = endpoint: mean survival time, dose: 200.0 mg/kg/injection, schedule: Q04DX003 (ip), vehicle: saline
[10] = endpoint: mean survival time, dose: 100.0 mg/kg/injection, schedule: Q01DX001 (ip), vehicle: saline with Tween-80
[11] = endpoint: mean survival time, dose: 200.0 mg/kg/injection, schedule: Q01DX001 (ip), vehicle: saline with Tween-80
[12] = endpoint: mean survival time, dose: 400.0 mg/kg/injection, schedule: Q01DX001 (ip), vehicle: saline with Tween-80
[13] = endpoint: mean survival time, dose: 200.0 mg/kg/injection, schedule: Q01DX001 (ip), vehicle: saline
[14] = endpoint: mean survival time, dose: 400.0 mg/kg/injection, schedule: Q01DX001 (ip), vehicle: saline
[15] = endpoint: mean survival time, dose: 400.0 mg/kg/injection, schedule: Q04DX003 (ip), vehicle: saline
[16] = endpoint: mean survival time, dose: 100.0 mg/kg/injection, schedule: Q04DX003 (ip), vehicle: saline with Tween-80
[17] = endpoint: mean survival time, dose: 200.0 mg/kg/injection, schedule: Q04DX003 (ip), vehicle: saline with Tween-80
[18] = endpoint: mean survival time, dose: 25.0 mg/kg/injection, schedule: Q04DX003 (ip), vehicle: water
[19] = endpoint: mean survival time, dose: 50.0 mg/kg/injection, schedule: Q04DX003 (ip), vehicle: water
[20] = endpoint: mean survival time, dose: 25.0 mg/kg/injection, schedule: Q01DX009 (ip), vehicle: saline with Tween-80

Measured: T/C

CCOC(=O)NC(CCl)C(=O)OC (stereo not given)
inactive: [1] 104 % of control | [2] 98 % of control | [3] 98 % of control

CCN(CC)CCC(=O)c1ccc2ccc3ccccc3c2c1
inactive: [4] 93 % of control | [5] 89 % of control

CCOc1ccccc1C(=O)OC(CN(CC)CC)c1ccccc1 (stereo not given)
inactive: endpoint: mean survival time, dose: 100.0 mg/kg/injection, schedule: Q04DX002 (ip), vehicle: saline 95 % of control | endpoint: mean survival time, dose: 200.0 mg/kg/injection, schedule: Q04DX002 (ip), vehicle: saline 95 % of control

CCCCN1C(=O)N(c2ccc(OCC)cc2)C2N(CCCC)C1C(C)(C)C2(C)C (stereo not given)
inactive: [6] 107 % of control | endpoint: median survival time, dose: 7.5 mg/kg/injection, schedule: Q01DX005 (ip), vehicle: saline with Tween-80 107 % of control | endpoint: median survival time, dose: 15.0 mg/kg/injection, schedule: Q01DX005 (ip), vehicle: saline with Tween-80 110 % of control | endpoint: median survival time, dose: 30.0 mg/kg/injection, schedule: Q01DX005 (ip), vehicle: saline with Tween-80 101 % of control | endpoint: median survival time, dose: 60.0 mg/kg/injection, schedule: Q01DX005 (ip), vehicle: saline with Tween-80 101 % of control | endpoint: median survival time, dose: 120.0 mg/kg/injection, schedule: Q01DX005 (ip), vehicle: saline with Tween-80 113 % of control

CC(=O)c1ccc(N=NN(C)C)cc1
inactive: endpoint: mean survival time, dose: 2.37 mg/kg/injection, schedule: Q01DX009 (ip), vehicle: Klucel (hydroxypropylcellulose) (HPC) 96 % of control | endpoint: mean survival time, dose: 9.5 mg/kg/injection, schedule: Q01DX009 (ip), vehicle: Klucel (hydroxypropylcellulose) (HPC) 96 % of control | endpoint: mean survival time, dose: 19.0 mg/kg/injection, schedule: Q01DX009 (ip), vehicle: Klucel (hydroxypropylcellulose) (HPC) 110 % of control | endpoint: mean survival time, dose: 58.0 mg/kg/injection, schedule: Q01DX009 (ip), vehicle: Klucel (hydroxypropylcellulose) (HPC) 101 % of control

CCCCCCCCCCCCNC(=O)c1ccc[n+](C)c1
inactive: endpoint: mean survival time, dose: 12.5 mg/kg/injection, schedule: Q01DX009 (ip), vehicle: saline 88 % of control | endpoint: mean survival time, dose: 12.5 mg/kg/injection, schedule: Q04DX003 (ip), vehicle: saline 93 % of control | endpoint: mean survival time, dose: 25.0 mg/kg/injection, schedule: Q04DX003 (ip), vehicle: saline 97 % of control | endpoint: mean survival time, dose: 50.0 mg/kg/injection, schedule: Q04DX003 (ip), vehicle: saline 101 % of control

C1=CC(=C(C2CCC(Nc3ccccc3)CC2)C2CCC(Nc3ccccc3)CC2)C=CC1=Nc1ccccc1 (stereo not given)
inactive: [7] 103 % of control | [1] 101 % of control | [8] 104 % of control | [2] 107 % of control | [9] 104 % of control

C=CCN(CC=C)CCNc1cc(C)nc(Nc2nc3ccc(Cl)cc3[nH]2)n1
inactive: [10] 94 % of control | [1] 86 % of control | [11] 92 % of control | [2] 93 % of control | [12] 94 % of control | [3] 100 % of control

CNC(=S)N(/N=C/c1cc(Cl)cc(Cl)c1O)c1ccccc1
inactive: [10] 87 % of control | [11] 87 % of control | [12] 91 % of control

O=S(=O)(Cl)c1ccc(F)cc1
inactive: [5] 106 % of control | [8] 101 % of control | [13] 109 % of control | [9] 102 % of control | [14] 103 % of control | [15] 98 % of control

CSc1nc(C)cc(N)n1
inactive: [16] 107 % of control | [17] 102 % of control

COc1ccc(C2=NNc3n[nH]c(=S)n3N2)cc1OC
inactive: [1] 93 % of control | [16] 91 % of control | [2] 93 % of control | [17] 101 % of control | [3] 104 % of control | endpoint: mean survival time, dose: 400.0 mg/kg/injection, schedule: Q04DX003 (ip), vehicle: saline with Tween-80 90 % of control

O=c1[nH]cnc2c1ncn2C1OC(CO)C(O)C1O (stereo not given)
inactive: [4] 100 % of control | [5] 100 % of control | [13] 97 % of control | [14] 100 % of control

CCNc1ncc2ccccc2c1-c1ccc(NCCN(CCCl)CCCl)cc1
inactive: [18] 98 % of control | [19] 100 % of control | endpoint: mean survival time, dose: 100.0 mg/kg/injection, schedule: Q04DX003 (ip), vehicle: water 90 % of control

O=C(O)c1c(F)c(F)c(F)c(Br)c1F
inactive: [16] 93 % of control | [17] 93 % of control

COc1ccc2c(NCCCCCCNc3c4ccccc4nc4cc(OC)ccc34)c3ccccc3nc2c1
inactive: endpoint: mean survival time, dose: 0.07 mg/kg/injection, schedule: Q01DX009 (ip), vehicle: other 102 % of control | endpoint: mean survival time, dose: 0.15 mg/kg/injection, schedule: Q01DX009 (ip), vehicle: other 102 % of control | endpoint: mean survival time, dose: 0.16 mg/kg/injection, schedule: Q01DX009 (ip), vehicle: lactic acid 124 % of control | endpoint: mean survival time, dose: 0.31 mg/kg/injection, schedule: Q01DX009 (ip), vehicle: lactic acid 110 % of control | endpoint: mean survival time, dose: 0.31 mg/kg/injection, schedule: Q01DX009 (ip), vehicle: other 105 % of control | endpoint: mean survival time, dose: 0.62 mg/kg/injection, schedule: Q01DX009 (ip), vehicle: lactic acid 113 % of control | endpoint: mean survival time, dose: 0.63 mg/kg/injection, schedule: Q01DX009 (ip), vehicle: other 100 % of control | endpoint: mean survival time, dose: 1.25 mg/kg/injection, schedule: Q01DX009 (ip), vehicle: lactic acid 121 % of control and 122 % of control | endpoint: mean survival time, dose: 1.25 mg/kg/injection, schedule: Q01DX009 (ip), vehicle: other 107 % of control | endpoint: mean survival time, dose: 2.5 mg/kg/injection, schedule: Q01DX009 (ip), vehicle: lactic acid 122 % of control | endpoint: mean survival time, dose: 5.0 mg/kg/injection, schedule: Q01DX009 (ip), vehicle: lactic acid 116 % of control | endpoint: mean survival time, dose: 10.0 mg/kg/injection, schedule: Q01DX009 (ip), vehicle: lactic acid 122 % of control

COc1ccc2c(c1)CCC1C2CCC2(C)C(=O)NC(=O)N12 (stereo not given)
inactive: endpoint: mean survival time, dose: 25.0 mg/kg/injection, schedule: Q04DX002 (ip), vehicle: saline with Tween-80 93 % of control | endpoint: mean survival time, dose: 50.0 mg/kg/injection, schedule: Q04DX002 (ip), vehicle: saline with Tween-80 86 % of control | [10] 86 % of control | [6] 86 % of control and 90 % of control | [12] 93 % of control | endpoint: mean survival time, dose: 400.0 mg/kg/injection, schedule: Q04DX002 (ip), vehicle: saline with Tween-80 86 % of control

COc1cc2c(cc1OC)-c1cc3cc(OC)c(OC)cc3c(C)[n+]1CC2 (tested in a mixture with another compound)
inactive: endpoint: mean survival time, dose: 100.0 mg/kg/injection, schedule: Q04DX003 (ip), vehicle: saline sonified 103 % of control

COc1ccc(OCCC(=O)O)cc1
inactive: endpoint: mean survival time, dose: 50.0 mg/kg/injection, schedule: Q01DX009 (ip), vehicle: saline 119 % of control | endpoint: mean survival time, dose: 100.0 mg/kg/injection, schedule: Q01DX009 (ip), vehicle: saline 105 % of control | endpoint: mean survival time, dose: 200.0 mg/kg/injection, schedule: Q01DX009 (ip), vehicle: saline 105 % of control

Cc1ccc(C)c(C(=O)CCCCl)c1
inactive: [20] 105 % of control | endpoint: mean survival time, dose: 25.0 mg/kg/injection, schedule: Q04DX003 (ip), vehicle: saline with Tween-80 93 % of control | [7] 97 % of control | endpoint: mean survival time, dose: 50.0 mg/kg/injection, schedule: Q04DX003 (ip), vehicle: saline with Tween-80 96 % of control | [1] 100 % of control | [16] 96 % of control

COc1cccc2c1C(=O)c1c(O)c3c(c(O)c1C2=O)C[C@@](O)(C(=O)CN1CCOCC1)C[C@@H]3OC1CC(N)C(O)C(C)O1 (stereo not given in full)
inactive: endpoint: mean survival time, dose: 6.25 mg/kg/injection, schedule: Q04DX003 (ip), vehicle: water 90 % of control | endpoint: mean survival time, dose: 12.5 mg/kg/injection, schedule: Q04DX003 (ip), vehicle: water 91 % of control | [18] 105 % of control | [19] 91 % of control

O=C(NCCc1c[nH]c2ccccc12)c1cccnc1
inactive: endpoint: mean survival time, dose: 100.0 mg/kg/injection, schedule: Q04DX003 (ip), vehicle: acetone 98 % of control | endpoint: mean survival time, dose: 200.0 mg/kg/injection, schedule: Q04DX003 (ip), vehicle: acetone 96 % of control | endpoint: mean survival time, dose: 400.0 mg/kg/injection, schedule: Q04DX003 (ip), vehicle: acetone 98 % of control

COC(=O)C(CCCCN=Cc1ccccc1O)N=Cc1ccccc1O.[Ni] (stereo not given)
inactive: endpoint: mean survival time, dose: 12.5 mg/kg/injection, schedule: Q01DX009 (ip), vehicle: saline with Tween-80 96 % of control | [20] 96 % of control | [7] 88 % of control and 94 % of control | [1] 93 % of control

CN(CCC#N)CCC#N
inactive: [8] 101 % of control | [9] 96 % of control | [15] 101 % of control
